From publication PMC10824666 (Nature Cancer, 2023)
Read-outs that look alike come from different tables or passages of the source. Blank lines part the entries; values can stand above or below the compound they belong to.

Tests used:
CDK18 = CDK18 (Homo sapiens, UniProt Q07002); test: biochemical; parameters: Eurofins DiscoverX kinase panel, competitive binding assay at 1 uM, percent of DMSO control; conditions: competitive binding, percent of DMSO control
Outline: (§1)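 Single-point profiling at 1 µM compound in a competition-binding format against 96 kinases, read out as POC relative to control; n = 1.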

PI3K delta = target: T1, PI3K delta (Homo sapiens, UniProt O00329); test: biochemical; parameters: Eurofins DiscoverX kinase panel, competitive binding assay at 1 uM, percent of DMSO control; conditions: competitive binding, percent of DMSO control
T1 construct: gene PIK3CD
T1 sequence (O00329 1-1044): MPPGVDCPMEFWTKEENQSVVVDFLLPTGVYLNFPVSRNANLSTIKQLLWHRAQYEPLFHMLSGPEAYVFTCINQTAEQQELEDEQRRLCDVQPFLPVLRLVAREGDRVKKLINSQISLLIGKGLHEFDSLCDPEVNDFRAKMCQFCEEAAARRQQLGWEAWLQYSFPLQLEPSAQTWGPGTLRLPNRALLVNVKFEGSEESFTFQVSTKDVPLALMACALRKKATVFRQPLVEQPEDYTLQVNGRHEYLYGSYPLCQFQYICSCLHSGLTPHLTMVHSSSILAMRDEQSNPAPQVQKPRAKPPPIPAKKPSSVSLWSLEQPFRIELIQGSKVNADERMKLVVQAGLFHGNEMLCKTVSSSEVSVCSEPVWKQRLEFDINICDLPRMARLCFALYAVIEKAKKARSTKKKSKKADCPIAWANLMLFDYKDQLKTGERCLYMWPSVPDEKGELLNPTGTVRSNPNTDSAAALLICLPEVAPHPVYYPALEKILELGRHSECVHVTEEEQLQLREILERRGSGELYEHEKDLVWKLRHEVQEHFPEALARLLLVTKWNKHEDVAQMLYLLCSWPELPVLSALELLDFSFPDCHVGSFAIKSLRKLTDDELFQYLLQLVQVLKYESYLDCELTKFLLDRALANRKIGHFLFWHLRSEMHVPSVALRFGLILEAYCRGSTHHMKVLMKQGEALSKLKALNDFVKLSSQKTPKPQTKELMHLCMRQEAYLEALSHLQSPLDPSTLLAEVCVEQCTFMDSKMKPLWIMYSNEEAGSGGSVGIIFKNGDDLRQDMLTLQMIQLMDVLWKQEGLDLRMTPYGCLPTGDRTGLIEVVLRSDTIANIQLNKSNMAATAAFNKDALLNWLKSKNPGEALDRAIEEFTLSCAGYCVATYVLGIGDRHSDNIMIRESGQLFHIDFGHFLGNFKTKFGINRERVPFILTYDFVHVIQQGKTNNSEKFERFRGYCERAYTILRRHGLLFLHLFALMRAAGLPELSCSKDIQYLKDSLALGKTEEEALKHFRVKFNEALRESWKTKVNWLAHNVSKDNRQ
Outline: as §1

[1] = read-out: Kinome Profiling performed by Eurofins DiscoverX / AM-1882, 1.0 µM / POC
[2] = read-out: Kinome Profiling performed by Eurofins DiscoverX / AM-5308, 1.0 µM / POC
[3] = read-out: Kinome Profiling performed by Eurofins DiscoverX / AM-0277, 1.0 µM / POC

Chain of CDK18 (Q07002 whole entry): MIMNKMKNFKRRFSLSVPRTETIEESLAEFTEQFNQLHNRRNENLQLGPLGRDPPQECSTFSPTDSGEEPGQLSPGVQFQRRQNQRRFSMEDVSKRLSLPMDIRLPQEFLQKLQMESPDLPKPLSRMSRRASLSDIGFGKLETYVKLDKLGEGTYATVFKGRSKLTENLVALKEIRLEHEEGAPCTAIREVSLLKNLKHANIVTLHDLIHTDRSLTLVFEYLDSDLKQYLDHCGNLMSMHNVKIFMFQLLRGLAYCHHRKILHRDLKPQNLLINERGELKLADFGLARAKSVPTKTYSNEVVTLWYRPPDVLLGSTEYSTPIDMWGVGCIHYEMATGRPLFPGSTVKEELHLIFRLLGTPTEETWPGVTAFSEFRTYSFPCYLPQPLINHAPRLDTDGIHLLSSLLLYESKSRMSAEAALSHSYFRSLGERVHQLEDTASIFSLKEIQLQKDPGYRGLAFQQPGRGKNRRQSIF

remaining activity at 1 µM (CDK18; [1]): 76%
remaining activity at 1 µM (PI3K delta; [1]): 96.5%
Compound: CC(C)(C)NS(=O)(=O)c1cccc(NC(=O)c2ccc(S(=O)(=O)NC(C)(C)C)cc2N2CCC3(CC2)CC3)c1 [AM-1882]

remaining activity at 1 µM (CDK18; [2]): 94%
remaining activity at 1 µM (PI3K delta; [2]): 68%
Compound: C[C@@H]1CN(c2cccc(NC(=O)c3ccc(NS(=O)(=O)CCO)cc3N3CCC4(CC3)CC4)n2)CCO1 [AM-5308]

remaining activity at 1 µM (CDK18; [3]): 78%
remaining activity at 1 µM (PI3K delta; [3]): 100%
Compound: CC(C)(CO)Nc1ccc(C(=O)Nc2cccc(S(=O)(=O)C3CCCC3)c2)c(N2CCC3(CC2)CC3)n1 [AM-0277]
